The source made the active and inactive calls.
How the values were obtained:
Large T antigen = Large T antigen (Simian virus 40, UniProt P03070); format: functional, Betapolyomavirus macacae;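 also: Confirmatory-stage PubChem screen for compounds that inhibit SV40 T antigen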
Vero = test: viability of Vero cells under compound – cytotoxicity control for flavivirus capping enzyme inhibitors (AID 588742); format: functional; details: Chlorocebus sabaeus
Beta-galactosidase = Beta-galactosidase (Escherichia coli, UniProt Q8VNN2); test: detection-enzyme interference by beta-gal modulators – biochemical, E. coli enzyme, set 3, artefact control for CCR6 antagonist project, dose response (AID 504712); format: functional
[1] = biological target: Peroxisome proliferator-activated receptor gamma/Nuclear receptor coactivator 2 (Homo sapiens, UniProt P37231); test: (§1) TR-FRET dose response biochemical High Throughput Screening assay for agonists of the steroid receptor coactivator 2 (SRC-2) recruitment by the peroxisome proliferator-activated receptor gamma (PPAR gamma): non-selective agonists. [Related pubchem assays: 1297, 1032 ]; format: functional
[2] = biological target: Peroxisome proliferator-activated receptor gamma/Nuclear receptor coactivator 1 (Homo sapiens, UniProt P37231); test: as §1, with “1 (SRC-1)” for “2 (SRC-2)”, “assays (depositor defined):AID1300, AID1808, AID504735, AID631]” for “assays: 1297, 1032 ]”; format: protein assay
[3] = biological target: Peroxisome proliferator-activated receptor gamma/Nuclear receptor coactivator 3 (Homo sapiens, UniProt P37231); test: as §1, with “3 (SRC-3)” for “2 (SRC-2)”, “1301 (Confirmation screen.), 1048 (Primary screen.)]” for “1297, 1032 ]”; format: functional
[4] = biological target: T1, Microphthalmia-associated transcription factor (Homo sapiens, UniProt O75030); test: reducers of TRPM1 reporter luminescence, concentration series – cell-based, SK-MEL-5, cherry-picked, set 3, MITF inhibitor project, dose response (AID 493073); format: functional;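 also: SK-MEL-5 melanoma cells with luciferase driven by the MITF target TRPM1 promoter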
T1 sequence (O75030 whole entry): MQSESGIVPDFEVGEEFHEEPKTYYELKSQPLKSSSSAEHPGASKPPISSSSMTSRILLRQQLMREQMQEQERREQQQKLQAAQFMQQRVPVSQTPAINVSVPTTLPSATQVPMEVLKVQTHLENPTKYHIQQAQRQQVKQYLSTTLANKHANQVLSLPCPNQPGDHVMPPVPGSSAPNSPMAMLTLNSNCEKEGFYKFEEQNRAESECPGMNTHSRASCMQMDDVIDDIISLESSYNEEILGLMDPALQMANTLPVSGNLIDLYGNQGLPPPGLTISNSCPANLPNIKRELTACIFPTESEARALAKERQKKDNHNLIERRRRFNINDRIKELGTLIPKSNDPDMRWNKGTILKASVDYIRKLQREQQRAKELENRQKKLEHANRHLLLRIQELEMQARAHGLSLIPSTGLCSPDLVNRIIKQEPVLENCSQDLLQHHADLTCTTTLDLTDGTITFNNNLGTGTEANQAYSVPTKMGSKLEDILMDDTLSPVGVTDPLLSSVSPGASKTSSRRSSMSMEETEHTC

Phospholipase A2 = Phospholipase A2 (Homo sapiens, UniProt P04054); format: functional;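 also: confirmatory dose-response counterscreen on phospholipase A2, testing hits that came from an ultra-high-throughput screen for ATG4B inhibitors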
Cysteine protease ATG4B = biological target: T2, Cysteine protease ATG4B (Homo sapiens, UniProt Q9Y4P1); format: functional;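 also: Fluorescence-based dose-response confirmation assay measuring inhibition of ATG4B activity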
T2 sequence (Q9Y4P1 whole entry): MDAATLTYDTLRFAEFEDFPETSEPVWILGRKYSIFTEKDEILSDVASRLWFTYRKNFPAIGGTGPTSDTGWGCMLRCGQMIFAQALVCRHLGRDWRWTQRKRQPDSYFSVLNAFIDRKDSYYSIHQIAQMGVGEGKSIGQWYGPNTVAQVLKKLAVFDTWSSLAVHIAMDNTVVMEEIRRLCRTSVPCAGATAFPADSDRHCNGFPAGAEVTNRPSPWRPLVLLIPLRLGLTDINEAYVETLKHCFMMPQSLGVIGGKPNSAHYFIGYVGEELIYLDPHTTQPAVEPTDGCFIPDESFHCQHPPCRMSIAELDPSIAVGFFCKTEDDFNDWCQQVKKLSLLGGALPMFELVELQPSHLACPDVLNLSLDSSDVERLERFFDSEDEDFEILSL

[5] = biological target: T3, Ubiquitin-conjugating enzyme E2 N (Homo sapiens, UniProt P61088); format: functional;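 also: Dose-response confirmation in a TR-FRET assay detecting UBC13-driven polyubiquitin chain formation, inhibition measured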
T3 sequence (P61088 whole entry): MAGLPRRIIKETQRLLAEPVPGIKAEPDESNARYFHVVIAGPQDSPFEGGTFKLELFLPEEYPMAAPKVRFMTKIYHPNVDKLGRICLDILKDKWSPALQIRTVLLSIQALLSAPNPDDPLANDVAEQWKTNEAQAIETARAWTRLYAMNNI

[6] = biological target: T4, DNA repair protein RAD52 homolog (Homo sapiens, UniProt P43351); format: functional, biochemical
T4 sequence (P43351 whole entry): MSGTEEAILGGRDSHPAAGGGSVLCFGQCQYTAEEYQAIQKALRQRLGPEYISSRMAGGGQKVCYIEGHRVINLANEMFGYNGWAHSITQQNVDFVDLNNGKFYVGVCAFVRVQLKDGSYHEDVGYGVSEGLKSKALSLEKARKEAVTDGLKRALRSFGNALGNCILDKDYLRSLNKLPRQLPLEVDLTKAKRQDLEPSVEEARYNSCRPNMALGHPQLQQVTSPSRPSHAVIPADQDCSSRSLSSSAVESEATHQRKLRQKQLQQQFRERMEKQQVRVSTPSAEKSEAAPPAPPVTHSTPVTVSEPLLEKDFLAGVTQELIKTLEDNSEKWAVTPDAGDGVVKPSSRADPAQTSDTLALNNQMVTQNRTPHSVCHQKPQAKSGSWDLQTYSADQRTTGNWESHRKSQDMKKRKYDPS

[7] = biological target: T5, RNA-binding protein pos-1 (Caenorhabditis elegans, UniProt G5EF15); test: disruptors of C. elegans POS-1 RNA interaction – biochemical, fluorescence polarization, dose response (AID 1964);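 also: purified POS-1 fused to maltose binding protein made in E. coli; potency of compounds blocking POS-1 binding to fluorescent RNA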
T5 sequence (G5EF15 whole entry): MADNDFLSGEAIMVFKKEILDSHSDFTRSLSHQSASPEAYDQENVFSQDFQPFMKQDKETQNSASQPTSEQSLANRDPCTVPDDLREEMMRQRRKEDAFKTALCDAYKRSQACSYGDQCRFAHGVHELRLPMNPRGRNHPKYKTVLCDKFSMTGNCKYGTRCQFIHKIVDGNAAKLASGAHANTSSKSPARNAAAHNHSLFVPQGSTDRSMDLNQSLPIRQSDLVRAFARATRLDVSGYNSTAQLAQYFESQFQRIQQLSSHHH

Protein RecA = biological target: T6, Protein RecA (Mycobacterium tuberculosis, UniProt P9WHJ3); test: Fluorescence Cell-Free Homogeneous Dose Retest to Identify Inhibitors of RecA-Intein Splicing Activity. [Related pubchem assays (depositor defined):AID2097, AID2223, AID489010, AID492950]; format: functional
T6 sequence (P9WHJ3 whole entry): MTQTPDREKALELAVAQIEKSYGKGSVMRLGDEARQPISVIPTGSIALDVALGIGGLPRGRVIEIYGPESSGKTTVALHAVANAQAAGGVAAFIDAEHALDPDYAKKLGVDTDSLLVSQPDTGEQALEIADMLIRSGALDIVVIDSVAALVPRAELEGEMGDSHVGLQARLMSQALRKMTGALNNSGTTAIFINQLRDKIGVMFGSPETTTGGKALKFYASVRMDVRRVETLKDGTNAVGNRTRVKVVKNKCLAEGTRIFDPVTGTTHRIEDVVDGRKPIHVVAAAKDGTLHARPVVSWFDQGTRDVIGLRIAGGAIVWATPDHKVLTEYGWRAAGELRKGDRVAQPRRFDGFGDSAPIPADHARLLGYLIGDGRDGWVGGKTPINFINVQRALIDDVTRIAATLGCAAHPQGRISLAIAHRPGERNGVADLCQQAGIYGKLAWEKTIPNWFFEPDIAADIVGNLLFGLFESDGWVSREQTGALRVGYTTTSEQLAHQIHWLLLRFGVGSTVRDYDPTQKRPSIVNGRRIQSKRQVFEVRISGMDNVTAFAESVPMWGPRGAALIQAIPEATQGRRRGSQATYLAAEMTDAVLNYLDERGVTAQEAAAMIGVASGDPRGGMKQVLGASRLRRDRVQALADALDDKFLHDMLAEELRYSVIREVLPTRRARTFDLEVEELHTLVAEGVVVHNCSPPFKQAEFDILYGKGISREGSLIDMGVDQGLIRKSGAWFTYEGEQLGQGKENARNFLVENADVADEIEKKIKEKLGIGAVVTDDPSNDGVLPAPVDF

[8] = biological target: T7, Zinc finger protein mex-5 (Caenorhabditis elegans, UniProt Q9XUB2); test: potency of MEX-5 RNA-binding blockers – biochemical, C. elegans, fluorescence polarization, dose response (AID 1960)
T7 sequence (Q9XUB2 whole entry): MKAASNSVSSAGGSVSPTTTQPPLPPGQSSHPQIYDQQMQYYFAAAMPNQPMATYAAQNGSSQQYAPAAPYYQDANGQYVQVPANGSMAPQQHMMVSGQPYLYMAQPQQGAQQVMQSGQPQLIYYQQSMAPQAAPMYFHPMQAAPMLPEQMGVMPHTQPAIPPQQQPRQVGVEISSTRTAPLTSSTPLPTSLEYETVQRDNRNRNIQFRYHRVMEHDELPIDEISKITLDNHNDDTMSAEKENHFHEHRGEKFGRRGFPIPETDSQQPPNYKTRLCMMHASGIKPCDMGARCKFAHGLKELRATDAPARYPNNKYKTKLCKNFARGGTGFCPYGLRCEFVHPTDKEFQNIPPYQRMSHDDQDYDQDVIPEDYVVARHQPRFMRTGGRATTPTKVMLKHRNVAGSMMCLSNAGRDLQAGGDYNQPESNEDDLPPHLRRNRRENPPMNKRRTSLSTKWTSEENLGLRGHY

[9] = biological target: T8, Replicative DNA helicase DnaB (Mycobacterium tuberculosis, UniProt P9WMR3); test: DnaB intein splicing inhibitors, dose response, biochemical, cell-free fluorescence (AID 449749); format: functional
T8 sequence (P9WMR3 whole entry): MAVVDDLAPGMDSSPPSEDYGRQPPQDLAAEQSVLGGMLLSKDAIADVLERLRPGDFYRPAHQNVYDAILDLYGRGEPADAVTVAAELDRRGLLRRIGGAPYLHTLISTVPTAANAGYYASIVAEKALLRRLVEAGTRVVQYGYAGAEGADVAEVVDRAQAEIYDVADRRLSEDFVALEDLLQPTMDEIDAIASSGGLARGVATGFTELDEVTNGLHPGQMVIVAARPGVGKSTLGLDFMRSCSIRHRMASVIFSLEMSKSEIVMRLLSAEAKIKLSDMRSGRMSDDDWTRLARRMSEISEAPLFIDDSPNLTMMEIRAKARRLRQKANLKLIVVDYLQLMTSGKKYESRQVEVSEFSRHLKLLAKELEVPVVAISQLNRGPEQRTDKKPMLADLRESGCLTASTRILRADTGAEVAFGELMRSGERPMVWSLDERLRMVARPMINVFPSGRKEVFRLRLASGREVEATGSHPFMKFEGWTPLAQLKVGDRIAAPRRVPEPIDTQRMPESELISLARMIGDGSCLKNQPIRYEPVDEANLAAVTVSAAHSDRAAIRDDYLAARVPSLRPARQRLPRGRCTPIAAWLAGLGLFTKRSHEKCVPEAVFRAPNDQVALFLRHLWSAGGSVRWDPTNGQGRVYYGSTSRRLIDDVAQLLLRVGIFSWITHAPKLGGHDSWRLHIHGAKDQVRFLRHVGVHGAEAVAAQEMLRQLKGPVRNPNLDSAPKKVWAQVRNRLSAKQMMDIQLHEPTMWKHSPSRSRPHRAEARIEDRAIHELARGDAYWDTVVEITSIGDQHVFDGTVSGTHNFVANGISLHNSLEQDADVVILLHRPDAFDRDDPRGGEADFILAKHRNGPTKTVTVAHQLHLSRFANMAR

Sequence of Peroxisome proliferator-activated receptor gamma/Nuclear receptor coactivator 3 (P37231 whole entry): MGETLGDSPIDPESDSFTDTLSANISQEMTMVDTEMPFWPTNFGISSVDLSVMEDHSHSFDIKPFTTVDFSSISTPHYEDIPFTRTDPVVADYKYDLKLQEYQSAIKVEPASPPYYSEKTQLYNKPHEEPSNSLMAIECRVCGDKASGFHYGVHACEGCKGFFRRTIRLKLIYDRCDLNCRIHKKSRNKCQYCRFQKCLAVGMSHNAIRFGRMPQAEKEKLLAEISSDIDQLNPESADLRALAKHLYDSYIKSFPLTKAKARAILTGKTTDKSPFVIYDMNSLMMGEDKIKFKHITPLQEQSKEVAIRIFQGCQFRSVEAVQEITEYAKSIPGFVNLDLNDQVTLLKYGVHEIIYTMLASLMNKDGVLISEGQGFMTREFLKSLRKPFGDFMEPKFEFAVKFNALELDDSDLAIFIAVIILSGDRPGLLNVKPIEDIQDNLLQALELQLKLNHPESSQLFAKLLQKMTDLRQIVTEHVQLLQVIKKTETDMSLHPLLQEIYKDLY
Sequence of Peroxisome proliferator-activated receptor gamma/Nuclear receptor coactivator 3 (Q9Y6Q9 whole entry, further chain): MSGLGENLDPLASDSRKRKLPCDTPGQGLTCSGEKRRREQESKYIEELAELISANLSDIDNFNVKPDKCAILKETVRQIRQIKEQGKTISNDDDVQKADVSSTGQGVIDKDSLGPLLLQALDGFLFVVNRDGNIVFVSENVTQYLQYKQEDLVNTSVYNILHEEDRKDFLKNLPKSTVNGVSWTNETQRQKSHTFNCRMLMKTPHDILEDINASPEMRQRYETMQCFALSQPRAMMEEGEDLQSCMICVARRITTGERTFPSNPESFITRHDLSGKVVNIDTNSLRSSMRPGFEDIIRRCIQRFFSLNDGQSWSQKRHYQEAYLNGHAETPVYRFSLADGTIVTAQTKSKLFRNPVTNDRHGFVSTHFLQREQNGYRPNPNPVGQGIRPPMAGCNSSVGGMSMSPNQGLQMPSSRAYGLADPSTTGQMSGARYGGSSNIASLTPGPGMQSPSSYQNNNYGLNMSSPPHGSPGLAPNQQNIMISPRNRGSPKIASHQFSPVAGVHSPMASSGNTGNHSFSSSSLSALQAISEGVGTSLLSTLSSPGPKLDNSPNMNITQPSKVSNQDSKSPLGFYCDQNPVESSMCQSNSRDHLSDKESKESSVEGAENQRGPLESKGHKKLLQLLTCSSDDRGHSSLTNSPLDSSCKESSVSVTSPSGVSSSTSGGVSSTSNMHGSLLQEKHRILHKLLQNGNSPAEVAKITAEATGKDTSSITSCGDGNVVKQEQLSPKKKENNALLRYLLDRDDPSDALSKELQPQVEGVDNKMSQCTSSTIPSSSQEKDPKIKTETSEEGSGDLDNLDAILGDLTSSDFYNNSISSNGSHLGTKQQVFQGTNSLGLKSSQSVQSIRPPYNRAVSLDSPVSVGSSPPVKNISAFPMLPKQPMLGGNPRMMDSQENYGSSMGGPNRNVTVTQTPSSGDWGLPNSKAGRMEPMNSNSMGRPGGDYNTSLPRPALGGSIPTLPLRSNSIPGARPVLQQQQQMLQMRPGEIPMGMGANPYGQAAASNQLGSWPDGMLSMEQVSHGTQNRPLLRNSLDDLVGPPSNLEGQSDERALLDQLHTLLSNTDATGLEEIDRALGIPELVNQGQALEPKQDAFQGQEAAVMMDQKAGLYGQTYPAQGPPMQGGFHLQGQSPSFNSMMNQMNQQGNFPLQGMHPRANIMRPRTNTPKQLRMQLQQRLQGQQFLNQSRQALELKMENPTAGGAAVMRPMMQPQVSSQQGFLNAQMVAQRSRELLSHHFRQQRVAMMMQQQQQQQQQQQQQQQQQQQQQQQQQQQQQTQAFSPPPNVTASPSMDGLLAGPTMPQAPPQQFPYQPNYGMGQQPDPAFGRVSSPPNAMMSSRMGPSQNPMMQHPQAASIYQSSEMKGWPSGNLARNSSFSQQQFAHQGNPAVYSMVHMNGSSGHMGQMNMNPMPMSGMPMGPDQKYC
Sequence of Peroxisome proliferator-activated receptor gamma/Nuclear receptor coactivator 2 (P37231 whole entry): as the sequence (P37231 whole entry) above
Sequence of Peroxisome proliferator-activated receptor gamma/Nuclear receptor coactivator 2 (Q15596 whole entry, further chain): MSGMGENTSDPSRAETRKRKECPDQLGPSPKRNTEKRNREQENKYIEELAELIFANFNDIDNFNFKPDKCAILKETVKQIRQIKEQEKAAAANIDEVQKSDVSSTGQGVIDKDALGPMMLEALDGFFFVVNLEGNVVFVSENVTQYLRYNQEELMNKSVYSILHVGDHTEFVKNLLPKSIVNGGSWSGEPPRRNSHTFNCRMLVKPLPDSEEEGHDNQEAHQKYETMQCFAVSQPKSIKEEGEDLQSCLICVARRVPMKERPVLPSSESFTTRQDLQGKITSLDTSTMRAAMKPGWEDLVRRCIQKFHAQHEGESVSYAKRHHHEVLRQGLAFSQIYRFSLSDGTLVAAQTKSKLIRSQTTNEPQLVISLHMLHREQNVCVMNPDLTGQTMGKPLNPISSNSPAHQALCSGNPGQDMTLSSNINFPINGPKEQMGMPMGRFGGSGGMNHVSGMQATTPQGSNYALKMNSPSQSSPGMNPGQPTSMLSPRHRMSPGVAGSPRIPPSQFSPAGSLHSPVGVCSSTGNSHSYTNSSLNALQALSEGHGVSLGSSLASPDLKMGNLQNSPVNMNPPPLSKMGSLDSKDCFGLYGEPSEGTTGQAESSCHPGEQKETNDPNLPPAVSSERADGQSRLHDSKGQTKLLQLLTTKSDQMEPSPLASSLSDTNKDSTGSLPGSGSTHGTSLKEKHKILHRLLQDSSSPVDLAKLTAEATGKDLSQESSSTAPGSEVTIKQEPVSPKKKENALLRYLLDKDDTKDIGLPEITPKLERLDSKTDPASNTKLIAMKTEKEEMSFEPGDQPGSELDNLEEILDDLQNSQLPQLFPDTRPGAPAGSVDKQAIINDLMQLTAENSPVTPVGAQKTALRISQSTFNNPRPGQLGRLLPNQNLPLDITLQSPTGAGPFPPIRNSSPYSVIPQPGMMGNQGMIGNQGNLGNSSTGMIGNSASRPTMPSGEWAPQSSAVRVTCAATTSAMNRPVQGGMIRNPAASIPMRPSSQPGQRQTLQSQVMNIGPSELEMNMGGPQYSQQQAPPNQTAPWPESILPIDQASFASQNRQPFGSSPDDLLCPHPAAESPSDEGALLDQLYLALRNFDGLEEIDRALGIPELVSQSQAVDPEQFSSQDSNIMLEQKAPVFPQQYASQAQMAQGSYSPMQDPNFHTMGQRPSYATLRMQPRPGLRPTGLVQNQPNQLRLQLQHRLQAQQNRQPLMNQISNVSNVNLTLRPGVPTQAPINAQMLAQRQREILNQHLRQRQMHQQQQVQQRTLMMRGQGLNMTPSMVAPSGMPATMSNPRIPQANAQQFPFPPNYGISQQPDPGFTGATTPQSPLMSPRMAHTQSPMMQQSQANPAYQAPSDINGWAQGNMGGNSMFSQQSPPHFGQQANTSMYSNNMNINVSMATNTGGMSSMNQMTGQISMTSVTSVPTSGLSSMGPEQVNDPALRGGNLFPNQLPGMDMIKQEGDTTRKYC
Sequence of Large T antigen (P03070 whole entry): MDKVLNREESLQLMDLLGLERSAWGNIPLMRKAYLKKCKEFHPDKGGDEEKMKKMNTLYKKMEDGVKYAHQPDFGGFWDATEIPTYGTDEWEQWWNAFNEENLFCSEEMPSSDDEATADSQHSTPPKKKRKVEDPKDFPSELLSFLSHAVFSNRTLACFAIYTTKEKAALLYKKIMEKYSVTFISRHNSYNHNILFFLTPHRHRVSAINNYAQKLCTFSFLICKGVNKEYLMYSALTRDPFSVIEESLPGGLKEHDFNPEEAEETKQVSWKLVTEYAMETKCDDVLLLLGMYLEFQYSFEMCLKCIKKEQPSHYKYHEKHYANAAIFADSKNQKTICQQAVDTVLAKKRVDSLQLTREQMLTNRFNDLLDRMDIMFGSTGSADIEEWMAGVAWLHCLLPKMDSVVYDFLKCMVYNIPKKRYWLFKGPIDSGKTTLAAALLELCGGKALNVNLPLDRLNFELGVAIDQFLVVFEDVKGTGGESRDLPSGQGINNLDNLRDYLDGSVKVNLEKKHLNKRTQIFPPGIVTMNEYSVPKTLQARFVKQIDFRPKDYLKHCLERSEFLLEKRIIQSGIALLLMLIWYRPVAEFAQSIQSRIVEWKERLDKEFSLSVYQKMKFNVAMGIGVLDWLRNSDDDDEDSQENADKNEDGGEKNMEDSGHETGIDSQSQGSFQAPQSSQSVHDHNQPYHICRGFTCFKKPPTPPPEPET
Sequence of Phospholipase A2 (P04054 whole entry): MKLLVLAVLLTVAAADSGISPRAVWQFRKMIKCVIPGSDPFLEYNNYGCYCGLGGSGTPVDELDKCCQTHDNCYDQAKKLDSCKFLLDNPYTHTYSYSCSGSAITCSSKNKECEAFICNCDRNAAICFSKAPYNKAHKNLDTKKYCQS

SMILES: CCOc1c(Br)cc(CNc2ccc(N3CCOCC3)cc2)cc1OC
- IC50 (Large T antigen): 8.16 µM (active)
- CC50 (Vero): > 40 µM (active)

SMILES: CCN(CC)CCNC(=S)NC(=O)c1cn(-c2ccccc2)nc1-c1ccc(OC)cc1
- IC50 (Beta-galactosidase): > 66.6 µM (inactive)
- CC50 (Vero): > 40 µM (active)

SMILES: Cc1ccc(S(=O)(=O)NCC(=O)OCC(=O)c2ccc(Br)s2)cc1
- EC50 [1]: 8.2 µM (active)
- EC50 [2]: 60 µM (inactive)
- EC50 [3]: > 79.4 µM (not active)

SMILES: COc1cccc(C2C=C(c3ccc(Br)s3)Nc3ncnn32)c1OC (centres undefined)
- EC50 [1]: 9.72 µM (active)
- EC50 [2]: 8.66 µM (active)
- EC50 [3]: > 26.5 µM (not active)

SMILES: CN=C(S)N1N=C(c2ccccc2)CC1c1ccc(Br)cc1 (centres undefined)
- EC50 [1]: 27.5 µM (not active)
- EC50 [2]: 27.8 µM (inactive)
- EC50 [3]: > 79.4 µM (not active)

SMILES: Cc1ccc(-c2cn3nc(C)c(C)nc3n2)cc1
- AC50 [4]: 5.3 µM (active)

SMILES: CC(=C\c1ccccc1)/C=C1/SC(=S)N(CCCC(=O)O)C1=O
- IC50 (Phospholipase A2): 34.7 µM (inactive)
- IC50 (Cysteine protease ATG4B): 17.1 µM (active)

SMILES: COc1cccc(/C=C2/Sc3ccc(C(=O)NCCN4CCCC4)cc3NC2=O)c1
- AC50 [4]: 17.9 µM (active)
- IC50 [5]: > 20 µM (inactive)
- AC50 [6]: 4.28 µM (active)

SMILES: COC(=O)c1ccc(-n2c(C)cc(C(=O)CCl)c2C)cc1
- AC50 [4]: 7.46 µM (active)
- EC50 [7]: > 300 µM (not active)
- EC50 (Protein RecA): 22.7 µM (active)
- EC50 [8]: > 300 µM (not active)
- AC50 [9]: 5.18 µM (active)

— ChEMBL document CHEMBL1201862, “PubChem BioAssay data set” (2004)
